{"source": "patent US8802597B2", "about": "“Herbicidal pyrimidines” (E I du Pont de Nemours and Company, priority 2003, dated 2014)", "type_in_all_cases": "in vivo", "key": {"[1]": {"tested_on": "lambsquarters (CHEAL, Chenopodium album L.)", "assay": "Test H mixtures of compound 1 with diflufenzopyr", "details": "foliage spray", "description": "(§1) This test evaluated the effect of mixtures of compound 1 with diflufenzopyr on several plant species. Seeds of test plants consisting of large crabgrass (DIGSA, Digitaria sanguinalis (L.) Scop.), lambsquarters (CHEAL, Chenopodium album L.), redroot pigweed (AMARE, Amaranthus retroflexus L.), cocklebur (XANST, Xanthium strumarium L.), barnyardgrass (ECHCG; Echinochloa crus-galli (L.) Beauv.), corn (ZEAMD, Zea mays L. cv. ‘Pioneer 33G26’), scarlet (red) morningglory (IPOCO, Ipomoea coccinea L.), giant foxtail (SETFA, Setaria faberi Herrm.) and velvetleaf (ABUTH, Abutilon theophrasti Medik.) were planted in pots containing Redi-Earth® planting medium (Scotts Company, 14111 Scottslawn Road, Marysville, Ohio 43041) comprising spaghnum peat moss, vermiculite, wetting agent and starter nutrients. Seeds of small-seeded species were planted about 1 cm deep; larger seeds were planted about 2.5 cm deep. Plants were grown in a greenhouse using supplemental lighting to maintain a photoperiod of about 14 hours; daytime and nighttime temperatures were about 25-30° C. and 22-25° C., respectively. Balanced fertilizer was applied through the watering system. The plants were grown for 7 to 11 days so that at time of treatment the plants ranged in height from 2 to 18 cm (1- to 4-leaf stage). Treatments consisted of Compound 1 and diflufenzopyr alone and in combination, suspended or dissolved in an aqueous solvent comprising glycerin and Tween nonionic surfactant and applied as a foliage spray using a volume of 541 L/ha. Each treatment was replicated four times. […] Treated plants and controls were maintained in the greenhouse and watered as needed with care to not wet the foliage for the first 24 hours after treatment. The effects on the plants approximately 3 weeks after treatment were visually compared to untreated controls. Plant response ratings were calculated as the means of the four replicates, based on a scale of 0 to 100 where 0 is no effect and 100 is complete control. Colby's Equation was used to determine the herbicidal effects expected from the mixtures. Colby's Equation (Colby, S. R. “Calculating Synergistic and Antagonistic Responses of Herbicide Combinations,” Weeds, 15(1), pp 20-22 (1967)) calculates the expected additive effect of herbicidal mixtures, and for two active ingredients is of the form: Pa+b=Pa+Pb−(PaPb/100) wherein Pa+b is the percentage effect of the mixture expected from additive contribution of the individual components, • Pa is the observed percentage effect of the first active ingredient at the same use rate as in the mixture, and • Pb is the observed percentage effect of the second active ingredient at the same use rate as in the mixture."}, "[2]": {"tested_on": "redroot pigweed (AMARE, Amaranthus retroflexus L.)", "assay": "Test H mixtures of compound 1 with diflufenzopyr", "details": "foliage spray", "description": "as §1"}, "[3]": {"tested_on": "corn (ZEAMD, Zea mays L. cv. ‘Pioneer 33G26’)", "assay": "Test H mixtures of compound 1 with diflufenzopyr", "details": "foliage spray", "description": "as §1"}, "[4]": {"tested_on": "giant foxtail (SETFA, Setaria faberi Herrm.)", "assay": "Test H mixtures of compound 1 with diflufenzopyr", "details": "foliage spray", "description": "as §1"}, "[5]": {"tested_on": "barnyardgrass (ECHCG; Echinochloa crus-galli (L.) Beauv.)", "assay": "Test H mixtures of compound 1 with diflufenzopyr", "details": "foliage spray", "description": "as §1"}, "[6]": {"tested_on": "large crabgrass (DIGSA, Digitaria sanguinalis (L.) Scop.)", "assay": "Test H mixtures of compound 1 with diflufenzopyr", "details": "foliage spray", "description": "as §1"}, "[7]": {"tested_on": "scarlet (red) morningglory (IPOCO, Ipomoea coccinea L.)", "assay": "Test H mixtures of compound 1 with diflufenzopyr", "details": "foliage spray", "description": "as §1"}, "[8]": {"tested_on": "velvetleaf (ABUTH, Abutilon theophrasti Medik.)", "assay": "Test H mixtures of compound 1 with diflufenzopyr", "details": "foliage spray", "description": "as §1"}, "[9]": {"tested_on": "cocklebur (XANST, Xanthium strumarium L.)", "assay": "Test H mixtures of compound 1 with diflufenzopyr", "details": "foliage spray", "description": "as §1"}, "[10]": {"tested_on": "catchweed bedstraw (GALAP; Galium aparine)", "assay": "Test I mixtures of compound 9 with metsulfuron-methyl and chlorsulfuron-metsulfuron-methyl (5:1)", "details": "applied alone", "description": "(§2) This test evaluated the effect of mixtures of compound 9 with metsulfuron-methyl and with a 5:1 by weight combination of chlorsulfuron and metsulfuron-methyl on several plant species. Seeds of test plants consisting of wheat (TRZAW; Triticum aestivum), wild buckwheat, (POLCO; Polygonum convolvulus), redroot pigweed (AMARE; Amaranthus retroflexus), wild mustard (SINAR; Sinapis arvensis), catchweed bedstraw (GALAP; Galium aparine), Russian thistle (SASKR; Salsola kali), common chickweed (STEME; Stellaria media), kochia (KCHSC; Kochia scoparia), and lambsquarters (CHEAL; Chenopodium album) were planted into a blend of loam soil and sand. Plants were grown in a greenhouse using supplemental lighting to maintain a photoperiod of about 14 hours; daytime and nighttime temperatures were about 23° C. and 16° C., respectively. Balanced fertilizer was applied through the watering system. The plants were grown for 10 to 23 days so that at time of treatment the plants ranged from 2- to 8-leaf stage. Treatments consisted of Compound 9, metsulfuron-methyl, and chlorsulfuron-metsulfuron-methyl (5:1) alone and in combination. The treatments were formulated in a non-phytotoxic solvent mixture which included a surfactant and applied as a foliage spray using a volume of 280-458 L/ha. Each treatment was replicated three times. […] Treated plants and controls were maintained in the greenhouse and watered as needed with care to not wet the foliage for the first 24 hours after treatment. The effects on the plants approximately 17 days after treatment were visually compared to untreated controls. Plant response ratings were calculated as the means of the three replicates, based on a scale of 0 to 100 where 0 is no effect and 100 is complete control. Colby's Equation was used to determine the herbicidal effects expected from the mixtures."}, "[11]": {"tested_on": "wheat (TRZAW; Triticum aestivum)", "assay": "Test I mixtures of compound 9 with metsulfuron-methyl and chlorsulfuron-metsulfuron-methyl (5:1)", "details": "Metsulfuron-Methyl series, applied alone", "description": "as §2"}, "[12]": {"tested_on": "wild buckwheat (POLCO; Polygonum convolvulus)", "assay": "Test I mixtures of compound 9 with metsulfuron-methyl and chlorsulfuron-metsulfuron-methyl (5:1)", "details": "applied alone", "description": "as §2"}, "[13]": {"tested_on": "redroot pigweed (AMARE; Amaranthus retroflexus)", "assay": "Test I mixtures of compound 9 with metsulfuron-methyl and chlorsulfuron-metsulfuron-methyl (5:1)", "details": "applied alone", "description": "as §2"}, "[14]": {"tested_on": "Russian thistle (SASKR; Salsola kali)", "assay": "Test I mixtures of compound 9 with metsulfuron-methyl and chlorsulfuron-metsulfuron-methyl (5:1)", "details": "applied alone", "description": "as §2"}, "[15]": {"tested_on": "kochia (KCHSC; Kochia scoparia)", "assay": "Test I mixtures of compound 9 with metsulfuron-methyl and chlorsulfuron-metsulfuron-methyl (5:1)", "details": "applied alone", "description": "as §2"}, "[16]": {"tested_on": "common chickweed (STEME; Stellaria media)", "assay": "Test I mixtures of compound 9 with metsulfuron-methyl and chlorsulfuron-metsulfuron-methyl (5:1)", "details": "applied alone", "description": "as §2"}, "[17]": {"tested_on": "wild mustard (SINAR; Sinapis arvensis)", "assay": "Test I mixtures of compound 9 with metsulfuron-methyl and chlorsulfuron-metsulfuron-methyl (5:1)", "details": "applied alone", "description": "as §2"}, "[18]": {"tested_on": "lambsquarters (CHEAL; Chenopodium album)", "assay": "Test I mixtures of compound 9 with metsulfuron-methyl and chlorsulfuron-metsulfuron-methyl (5:1)", "details": "applied alone", "description": "as §2"}}, "data": [{"smiles": "C/C(=N\\NC(=O)Nc1cc(F)cc(F)c1)c1ncccc1C(=O)O", "note": "[Diflufenzopyr, diflufenzopyr, reference compound]", "values": [{"measurement": "Obsd. observed effect (0 to 100 scale)", "setting": "[1]; Diflufenzopyr 12 g a.i./ha", "result": 61}, {"measurement": "Obsd. observed effect (0 to 100 scale)", "setting": "[1]; Diflufenzopyr 25 g a.i./ha", "result": 76}, {"measurement": "Obsd. observed effect (0 to 100 scale)", "setting": "[1]; Diflufenzopyr 50 g a.i./ha", "result": 80}, {"measurement": "Obsd. observed effect (0 to 100 scale)", "setting": "[2]; Diflufenzopyr 12 g a.i./ha", "result": 73}, {"measurement": "Obsd. observed effect (0 to 100 scale)", "setting": "[2]; Diflufenzopyr 25 g a.i./ha", "result": 91}, {"measurement": "Obsd. observed effect (0 to 100 scale)", "setting": "[2]; Diflufenzopyr 50 g a.i./ha", "result": 95}, {"measurement": "Obsd. observed effect (0 to 100 scale)", "setting": "[3]; Diflufenzopyr 12 g a.i./ha", "result": 0}, {"measurement": "Obsd. observed effect (0 to 100 scale)", "setting": "[3]; Diflufenzopyr 25 g a.i./ha", "result": 0}, {"measurement": "Obsd. observed effect (0 to 100 scale)", "setting": "[3]; Diflufenzopyr 50 g a.i./ha", "result": 0}, {"measurement": "Obsd. observed effect (0 to 100 scale)", "setting": "[4]; Diflufenzopyr 12 g a.i./ha", "result": 41}, {"measurement": "Obsd. observed effect (0 to 100 scale)", "setting": "[4]; Diflufenzopyr 25 g a.i./ha", "result": 58}, {"measurement": "Obsd. observed effect (0 to 100 scale)", "setting": "[4]; Diflufenzopyr 50 g a.i./ha", "result": 59}, {"measurement": "Obsd. observed effect (0 to 100 scale)", "setting": "[5]; Diflufenzopyr 12 g a.i./ha", "result": 5}, {"measurement": "Obsd. observed effect (0 to 100 scale)", "setting": "[5]; Diflufenzopyr 25 g a.i./ha", "result": 10}, {"measurement": "Obsd. observed effect (0 to 100 scale)", "setting": "[5]; Diflufenzopyr 50 g a.i./ha", "result": 23}, {"measurement": "Obsd. observed effect (0 to 100 scale)", "setting": "[6]; Diflufenzopyr 12 g a.i./ha", "result": 0}, {"measurement": "Obsd. observed effect (0 to 100 scale)", "setting": "[6]; Diflufenzopyr 25 g a.i./ha", "result": 1}, {"measurement": "Obsd. observed effect (0 to 100 scale)", "setting": "[6]; Diflufenzopyr 50 g a.i./ha", "result": 8}, {"measurement": "Obsd. observed effect (0 to 100 scale)", "setting": "[7]; Diflufenzopyr 12 g a.i./ha", "result": 77}, {"measurement": "Obsd. observed effect (0 to 100 scale)", "setting": "[7]; Diflufenzopyr 25 g a.i./ha", "result": 83}, {"measurement": "Obsd. observed effect (0 to 100 scale)", "setting": "[7]; Diflufenzopyr 50 g a.i./ha", "result": 82}, {"measurement": "Obsd. observed effect (0 to 100 scale)", "setting": "[8]; Diflufenzopyr 12 g a.i./ha", "result": 50}, {"measurement": "Obsd. observed effect (0 to 100 scale)", "setting": "[8]; Diflufenzopyr 25 g a.i./ha", "result": 78}, {"measurement": "Obsd. observed effect (0 to 100 scale)", "setting": "[8]; Diflufenzopyr 50 g a.i./ha", "result": 68}, {"measurement": "Obsd. observed effect (0 to 100 scale)", "setting": "[9]; Diflufenzopyr 12 g a.i./ha", "result": 43}, {"measurement": "Obsd. observed effect (0 to 100 scale)", "setting": "[9]; Diflufenzopyr 25 g a.i./ha", "result": 60}, {"measurement": "Obsd. observed effect (0 to 100 scale)", "setting": "[9]; Diflufenzopyr 50 g a.i./ha", "result": 68}]}, {"smiles": "COC(=O)c1ccccc1S(=O)(=O)NC(=O)Nc1nc(C)nc(OC)n1", "note": "[Metsulfuron-Methyl]", "values": [{"measurement": "GALAP Obsd. (observed effect)", "setting": "[10]; 4 g a.i./ha", "result": 0}, {"measurement": "GALAP Obsd. (observed effect)", "setting": "[10]; 8 g a.i./ha", "result": 0}, {"measurement": "TRZAW Obsd. (observed effect)", "setting": "[11]; 4 g a.i./ha", "result": 0}, {"measurement": "TRZAW Obsd. (observed effect)", "setting": "[11]; 8 g a.i./ha", "result": 0}, {"measurement": "POLCO Obsd. (observed effect)", "setting": "[12]; 4 g a.i./ha", "result": 0}, {"measurement": "POLCO Obsd. (observed effect)", "setting": "[12]; 8 g a.i./ha", "result": 0}, {"measurement": "AMARE Obsd. (observed effect)", "setting": "[13]; 4 g a.i./ha", "result": 0}, {"measurement": "AMARE Obsd. (observed effect)", "setting": "[13]; 8 g a.i./ha", "result": 0}, {"measurement": "SASKR Obsd. (observed effect)", "setting": "[14]; 4 g a.i./ha", "result": 0}, {"measurement": "SASKR Obsd. (observed effect)", "setting": "[14]; 8 g a.i./ha", "result": 0}, {"measurement": "KCHSC Obsd. (observed effect)", "setting": "[15]; 4 g a.i./ha", "result": 0}, {"measurement": "KCHSC Obsd. (observed effect)", "setting": "[15]; 8 g a.i./ha", "result": 0}, {"measurement": "STEME Obsd. (observed effect)", "setting": "[16]; 4 g a.i./ha", "result": 0}, {"measurement": "STEME Obsd. (observed effect)", "setting": "[16]; 8 g a.i./ha", "result": 0}, {"measurement": "SINAR Obsd. (observed effect)", "setting": "[17]; 4 g a.i./ha", "result": 0}, {"measurement": "SINAR Obsd. (observed effect)", "setting": "[17]; 8 g a.i./ha", "result": 0}, {"measurement": "CHEAL Obsd. (observed effect)", "setting": "[18]; 4 g a.i./ha", "result": 0}, {"measurement": "CHEAL Obsd. (observed effect)", "setting": "[18]; 8 g a.i./ha", "result": 0}]}]}
